From patent US20260250290A1 (BRISTOL-MYERS SQUIBB COMPANY, priority 2023, published 2026)

Each molecule was assayed against T1, SGK1 (Homo sapiens, UniProt O00141) (assay: SGK1 inhibition Assay B (Echo mass spectrometry of phosphorylated peptide product)). Details: 60 min at room temperature.
T1 sequence (O00141 1-431): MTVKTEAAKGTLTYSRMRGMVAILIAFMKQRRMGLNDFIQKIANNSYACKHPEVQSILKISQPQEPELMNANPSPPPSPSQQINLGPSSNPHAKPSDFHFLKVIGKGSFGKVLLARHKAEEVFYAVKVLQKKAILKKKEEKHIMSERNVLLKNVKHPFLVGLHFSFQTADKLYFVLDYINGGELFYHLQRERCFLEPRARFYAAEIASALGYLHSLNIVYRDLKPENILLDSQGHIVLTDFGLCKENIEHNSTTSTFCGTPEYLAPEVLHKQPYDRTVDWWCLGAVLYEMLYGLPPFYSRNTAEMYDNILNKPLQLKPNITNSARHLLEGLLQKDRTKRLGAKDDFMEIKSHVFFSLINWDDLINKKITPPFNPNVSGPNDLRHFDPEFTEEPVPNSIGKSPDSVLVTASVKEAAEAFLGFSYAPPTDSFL
Format: biochemical

Row | IC50 | Structure (SMILES)
1 | 2 nM | CC(C)N1CC2CC(Oc3cc(Cl)sc3C(=O)N[C@@H]3CCCN(c4cc(-c5ccc(-n6cnnn6)nc5)n5ncnc(N)c45)C3)CC2C1 (stereo partly drawn) [Example 959, N—((R)-1-(7-(6-(1H-tetrazol-1-yl)pyridin-3-yl)-4-aminopyrrolo[2,1-f][1,2,4]triazin-5-yl)piperidin-3-yl)-5-chloro-3-(((3aR,6aS)-2-isopropyloctahydrocyclopenta[c]pyrrol-5-yl)oxy) thiophene-2-carboxamide]
2 | 17 nM | CN1[C@@H]2CC[C@H]1C[C@H](Oc1cc(Cl)sc1C(=O)N[C@@H]1CCCN(c3cc(-c4ccc(C(F)(F)F)c(F)c4)n4ncnc(N)c34)C1)C2 [Example 841, N-((R)-1-(4-amino-7-(3-fluoro-4-(trifluoromethyl)phenyl)pyrrolo[2,1-f][1,2,4]triazin-5-yl)piperidin-3-yl)-5-chloro-3-(((1R,3s,5S)-8-methyl-8-azabicyclo[3.2.1]octan-3-yl)oxy)thiophene-2-carboxamide]
3 | 3 nM | Cc1nc(O[C@H]2CC[C@@H](NCC(C)(C)O)CC2)c(C(=O)N[C@@H]2CCCN(c3cc(-c4ccc(C(N)=O)c(F)c4)n4ncnc(N)c34)C2)s1 [Example 978, N—((R)-1-(4-Amino-7-(4-carbamoyl-3-fluorophenyl)pyrrolo[2,1-f][1,2,4]triazin-5-yl)piperidin-3-yl)-4-(((1s,4S)-4-((2-hydroxy-2-methylpropyl)amino)cyclohexyl)oxy)-2-methylthiazole-5-carboxamide]
4 | 12 nM | CCN1CCC(Oc2nc(C)sc2C(=O)N[C@@H]2CCCN(c3cc(C4=CCN(C(C)=O)C4)n4ncnc(N)c34)C2)CC1(C)C (single isomer, unassigned) [Example 946]
5 | 1 nM | CCN1CC[C@@H](Oc2cc(C(F)F)sc2C(=O)N[C@@H]2CCCN(c3cc(-c4ccc(C(N)=O)c(F)c4)n4ncnc(N)c34)C2)CC1(C)C [Example 947, N—((R)-1-(4-amino-7-(4-carbamoyl-3-fluorophenyl)pyrrolo[2,1-f][1,2,4]triazin-5-yl)piperidin-3-yl)-5-(difluoromethyl)-3-(((R)-1-ethyl-2,2-dimethylpiperidin-4-yl)oxy)thiophene-2-carboxamide]
6 | 0.9 nM | CCC(C)(C)N[C@H]1CC[C@@H](Oc2nc(C)sc2C(=O)N[C@@H]2CCCN(c3cc(-c4ccnc(OC)n4)n4ncnc(N)c34)C2)CC1 [Example 1030, (R)—N-(1-(4-amino-7-(2-methoxypyrimidin-4-yl)pyrrolo[2,1-f][1,2,4]triazin-5-yl)piperidin-3-yl)-2-methyl-4-((4-(tert-pentylamino)cyclohexyl)oxy)thiazole-5-carboxamide]
7 | 0.8 nM | CC1=C(c2cc(N3CCCC(NC(=O)c4sc(C)nc4OC4CCC(N5CCC5)CC4)C3)c3c(N)ncnn23)COC1=O [Example 1006, (R)-N-(1-(4-amino-7-(4-methyl-5-oxo-2,5-dihydrofuran-3-yl)pyrrolo[2,1-f][1,2,4]triazin-5-y1)piperidin-3-y1)-4-((4-(azetidin-1-yl)cyclohexyl)oxy)-2-methylthiazole-5-carboxamide]
8 | 16 nM | Cc1cc(-c2cc(N3CCC[C@@H](NC(=O)c4sc(C)nc4O[C@H]4CC[C@@H](N(C)C)CC4)C3)c3c(N)ncnn23)cnn1 [Example 1046]
9 | 0.5 nM | Cc1nc(O[C@H]2CC[C@@](C)(N)CC2)c(C(=O)N[C@@H]2CCCN(c3cc(-c4ccc(-n5cnnn5)c(F)c4)n4ncnc(N)c34)C2)s1 [Example 934, 4-(((1s,4S)-4-Amino-4-methylcyclohexyl)oxy)-N—((R)-1-(4-amino-7-(3-fluoro-4-(1H-tetrazol-1-yl)phenyl)pyrrolo[2,1-f][1,2,4]triazin-5-yl)piperidin-3-yl)-2-methylthiazole-5-carboxamide]
10 | 6 nM | CCN1CCC(Oc2nc(C)sc2C(=O)N[C@@H]2CCCN(c3cc(-c4ccc(C(N)=O)c(F)c4)n4ncnc(N)c34)C2)CC12CCC2 (stereo partly shown) [Example 982]
11 | 0.8 nM | Cc1cc(O[C@@H]2C[C@H]3CC[C@@H](C2)N3C)c(C(=O)N[C@@H]2CCCN(c3cc(-c4ccc(-n5cc(CCC#N)nn5)c(F)c4)n4ncnc(N)c34)C2)s1 [Example 933, N—((R)-1-(4-Amino-7-(4-(4-(2-cyanoethyl)-1H-1,2,3-triazol-1-yl)-3-fluorophenyl)pyrrolo[2,1-f][1,2,4]triazin-5-yl)piperidin-3-yl)-5-methyl-3-(((1R,3s,5S)-8-methyl-8-azabicyclo[3.2.1]octan-3-yl)oxy)thiophene-2-carboxamide]

Continued, molecule first:

Row | Structure (SMILES) | IC50
12 | CC(C)N1[C@@H]2CCC[C@H]1C[C@H](Oc1cc(Cl)sc1C(=O)N[C@@H]1CCCN(c3cc(-c4cc(F)c(=O)n(CC(F)F)c4)n4ncnc(N)c34)C1)C2 [Example 968, N—((R)-1-(4-amino-7-(1-(2,2-difluoroethyl)-5-fluoro-6-oxo-1,6-dihydropyridin-3-yl)pyrrolo[2,1-f][1,2,4]triazin-5-yl)piperidin-3-yl)-5-chloro-3-(((1R,3s,5S)-9-isopropyl-9-azabicyclo[3.3.1]nonan-3-yl)oxy)thiophene-2-carboxamide] | 2 nM
13 | COc1cc(-c2cc(N3CCC[C@@H](NC(=O)c4cccc(N5CC6(C5)CN(C(C)C)C6)n4)C3)c3c(N)ncnn23)ccc1-n1cnnn1 [Example 827, (R)-N-(1-(4-amino-7-(3-methoxy-4-(1H-tetrazol-1-yl)phenyl)pyrrolo[2,1-f][1,2,4]triazin-5-y1)piperidin-3-yl)-6-(6-isopropyl-2,6-diazaspiro[3.3]heptan-2-yl)picolinamide] | 7 nM
14 | CC(C)S(=O)(=O)c1ccc(-c2cc(N3CCC[C@@H](NC(=O)c4sc(Cl)cc4O[C@@H]4C[C@H]5CC[C@@H](C4)N5C)C3)c3c(N)ncnn23)cn1 [Example 969, N-[(3R)-1-{4-amino-7-[6-(propane-2-sulfonyl)pyridin-3-yl]pyrrolo[2,1-f][1,2,4]triazin-5-yl}piperidin-3-yl]-5-chloro-3-{[(R,3R,5S)-8-methyl-8-azabicyclo[3.2.1]octan-3-yl]oxy}thiophene-2-carboxamide] | 4 nM
15 | CCC(CO)NC1CCC(Oc2nc(C)sc2C(=O)NC2CCCN(c3cc(C4=C(C)C(=O)OC4)n4ncnc(N)c34)C2)CC1 [Example 1009, N-((R)-1-(4-amino-7-(4-methyl-5-oxo-2,5-dihydrofuran-3-yl)pyrrolo[2,1-f][1,2,4]triazin-5-y1)piperidin-3-y1)-4-((4-(((S)-1-hydroxybutan-2-yl)amino)cyclohexyl)oxy)-2-methylthiazole-5-carboxamide] | 1.9 nM
16 | CC(=O)c1ccc(-c2cc(N3CCC[C@@H](NC(=O)c4sc(Cl)cc4O[C@@H]4C[C@H]5CC[C@@H](C4)N5C)C3)c3c(N)ncnn23)cn1 [Example 838, N-((R)-1-(7-(6-acetylpyridin-3-yl)-4-aminopyrrolo[2,1-f][1,2,4]triazin-5-yl)piperidin-3-yl)-5-chloro-3-(((1R,3s,5S)-8-methyl-8-azabicyclo[3.2.1]octan-3-yl)oxy)thiophene-2-carboxamide] | 2 nM
17 | Cc1nnnn1-c1ccc(-c2cc(N3CCC[C@@H](NC(=O)c4cccc(N5CC6(C5)CN(C(C)C)C6)n4)C3)c3c(N)ncnn23)cc1 [Example 829, (R)-N-(1-(4-amino-7-(4-(5-methyl-1H-tetrazol-1-yl)phenyl)pyrrolo[2,1-f][1,2,4]triazin-5-yl)piperidin-3-yl)-6-(6-isopropyl-2,6-diazaspiro[3.3]heptan-2-yl)picolinamide] | 2 nM
18 | CCC1=C(c2cc(N3CCC[C@@H](NC(=O)c4sc(C)nc4OC4CCC(NC5CC5)CC4)C3)c3c(N)ncnn23)COC1=O (stereo partly drawn) [Example 1022, (R)-N-(1-(4-amino-7-(4-ethyl-5-oxo-2,5-dihydrofuran-3-yl)pyrrolo[2,1-f][1,2,4]triazin-5-yl)piperidin-3-y1)-4-((4-(cyclopropylamino)cyclohexyl)oxy)-2-methylthiazole-5-carboxamide] | 1.3 nM
19 | CCC(CC)N[C@H]1CC[C@@H](Oc2nc(C)sc2C(=O)N[C@@H]2CCCN(c3cc(C4=CC(=O)OC4)n4ncnc(N)c34)C2)CC1 [Example 1003, N—((R)-1-(4-amino-7-(5-oxo-2,5-dihydrofuran-3-yl)pyrrolo[2,1-f][1,2,4]triazin-5-yl)piperidin-3-yl)-2-methyl-4-(((1S,4S)-4-(pentan-3-ylamino)cyclohexyl)oxy)thiazole-5-carboxamide] | 0.8 nM
20 | CC(=O)c1ccc(-c2cc(N3CCC[C@@H](NC(=O)c4ccnc(N5CCN(C)CC5)n4)C3)c3c(N)ncnn23)cn1 [Example 851, (R)-N-(1-(7-(6-acetylpyridin-3-yl)-4-aminopyrrolo[2,1-f][1,2,4]triazin-5-yl)piperidin-3-yl)-2-(4-methylpiperazin-1-yl)pyrimidine-4-carboxamide] | 18 nM
21 | CC(C)N1CC2(CN(c3cccc(C(=O)N[C@@H]4CCCN(c5cc(-c6ccc(C#N)c(F)c6)n6ncnc(N)c56)C4)n3)C2)C1 [Example 818, (R)-N-(1-(4-amino-7-(4-cyano-3-fluorophenyl)pyrrolo[2,1-f][1,2,4]triazin-5-yl)piperidin-3-yl)-6-(6-isopropyl-2,6-diazaspiro[3.3]heptan-2-yl)picolinamide] | 3 nM
22 | CC1=C(c2cc(N3CCC[C@@H](NC(=O)c4sc(C)nc4O[C@H]4CC[C@@H](NC5CCOC5(C)C)CC4)C3)c3c(N)ncnn23)COC1=O (stereo partly drawn) [Example 1012, N—((R)-1-(4-amino-7-(4-methyl-5-oxo-2,5-dihydrofuran-3-yl)pyrrolo[2,1-f][1,2,4]triazin-5-yl)piperidin-3-yl)-4-(((1S,4S)-4-((2,2-dimethyltetrahydrofuran-3-yl)amino)cyclohexyl)oxy)-2-methylthiazole-5-carboxamide] | 1.1 nM
